Reference: patent publication US11116757B2 (priority 2015, dated 2021)

These compounds were tested against DCN1-UBC12 interaction (Homo sapiens (Human), UniProt Q96GG9) (assay: biochemical). Settings: TR-FRET IC50.
Type: binding

Sequence of DCN1-UBC12 interaction (Q96GG9 60-248 limits assumed): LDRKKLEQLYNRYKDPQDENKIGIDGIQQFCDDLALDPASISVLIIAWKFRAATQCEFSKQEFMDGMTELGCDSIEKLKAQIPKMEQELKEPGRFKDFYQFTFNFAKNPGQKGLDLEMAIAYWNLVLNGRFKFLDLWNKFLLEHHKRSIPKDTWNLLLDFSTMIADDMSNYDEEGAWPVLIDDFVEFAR

| SMILES | IC50 [µM] |
| --- | --- |
| CCCC(C)N1CCC(N(Cc2ccccc2)C(=O)Nc2ccc(C(F)(F)F)nc2C)CC1 (stereo not drawn) [A178] | 15.8 |

Same assay, conditions: Table 4, commercial compounds; read-out: TR-FRET IC50

| SMILES | IC50 [µM] |
| --- | --- |
| CCc1ccccc1NC(=O)C1CCN(C(=O)c2ccc(F)cc2)CC1 [C67] | > 75.6 |
| CCOc1ccc(NC(=O)C2CCN(C(=O)c3ccccc3Cl)CC2)cc1 [C48] | > 67.6 |
| CC(=O)Nc1ccc(NC(=O)C2CCN(C(=O)c3cccs3)CC2)cc1 [C35] | > 67.6 |
| Cc1ccccc1/C=C/C(=O)N1CCC(C(=O)Nc2ccc3c(c2)OCO3)CC1 [C61] | > 67.6 |
| COCCC(=O)N1CCC(C(=O)Nc2ccc(-c3cc4ccccc4[nH]3)cc2)CC1 [C45] | > 67.6 |
| O=C(Nc1ccc(Cl)c(C(F)(F)F)c1)C1CCN(C(=O)c2ccccc2Cl)CC1 [C7] | > 46 |

Same assay, conditions: Table 6, commercial compounds; read-out: TR-FRET IC50

| SMILES | IC50 [µM] |
| --- | --- |
| Cc1cnc(-n2ncc(C(=O)N(C)CC(C)C)c2C)nc1-c1cccs1 [E41] | > 67.6 |
| COCCN1CCN(C(=O)c2cnn(-c3ncc(C)c(-c4cccs4)n3)c2C2CC2)CC1 [E30] | > 67.6 |
| CCCN1CCN(C(=O)c2cnn(-c3nccc(-c4cccs4)n3)c2COC)CC1 [E27] | > 16.7 |
| CCN1CCN(C(=O)c2cnn(-c3nccc(-c4cccs4)n3)c2C2CC2)CC1 [E14] | 29.9 |
| CN1CCN(C(=O)c2cnn(-c3nccc(-c4cccs4)n3)c2C2CC2)CC1 [E33] | > 67.6 |
| CSCCCNC(=O)c1cnn(-c2nccc(-c3cccs3)n2)c1C [E51] | > 67.6 |
| CCN(CC)C(=O)c1cnn(-c2nccc(-c3cccs3)n2)c1C [E25] | 63 |
| COCCN1CCN(C(=O)c2cnn(-c3ncc(C)c(-c4cccs4)n3)c2C)CC1 [E32] | > 67.6 |
| CCN1CCN(C(=O)c2cnn(-c3ncc(C)c(-c4cccs4)n3)c2COC)CC1 [E20] | 48.2 |
| CCN(CC)CCN(C)C(=O)c1cnn(-c2ncc(C)c(-c3cccs3)n2)c1COC [E38] | > 67.6 |

Same assay, conditions: Table 7, commercial compounds; read-out: TR-FRET IC50

| SMILES | IC50 [µM] |
| --- | --- |
| CCCOc1ccc(C2c3c(C)nn(C)c3NC(=O)C2NC(=O)c2cccc(C)c2)cc1OC (stereo not drawn) [F22] | > 67.6 |
| COc1ccc(C2c3c(C)nn(C)c3NC(=O)C2NC(=O)c2ccc(Cl)cc2)cc1F (stereo not drawn) [F31] | > 67.6 |
| Cc1nn(C)c2c1C(c1cccc(Cl)c1)C(NC(=O)c1ccc(Cl)cc1)C(=O)N2 (stereo not drawn) [F28] | > 67.6 |
| CCOc1ccc(C2c3c(C)nn(C)c3NC(=O)C2NC(=O)c2cccc(C)c2)cc1OC (stereo not drawn) [F18] | > 67.6 |
| Cc1cccc(C(=O)NC2C(=O)Nc3c(c(C)nn3C)C2c2cccc(F)c2)c1 (stereo not drawn) [F15] | > 67.6 |
| COc1cccc(C2c3c(C)nn(C)c3NC(=O)C2NC(=O)c2cccc(C)c2)c1 (stereo not drawn) [F27] | > 67.6 |

Same assay, conditions: read-out: TR-FRET IC50

| SMILES | IC50 [µM] |
| --- | --- |
| CCCC(C)N1CCC(N(Cc2ccccc2)C(=O)Nc2ccc(OC)cc2C)CC1 (stereo not drawn) [A275] | > 68.6 |
| CCCC(C)N1CCC(N(Cc2ccccc2)C(=O)Nc2ccc(C(=O)OC)cc2I)CC1 (stereo not drawn) [A190] | 37.8 |
| O=C(Nc1ccc2c(c1)C(=O)NCC2)NC1CCN(Cc2ccccc2)CC1 [B122] | > 84.8 |
| COc1cc(OC)cc(C(=O)N2CCCC(c3nc4ccccc4s3)C2)c1 (stereo not drawn) [D30] | > 67.6 |
| O=C(c1ccc(Cl)c(Cl)c1)N1CCC(c2nc3ccccc3s2)CC1 [D7] | 19.5 |
| COc1cc(CN2CCC(NC(=O)Nc3cccc(C)c3)CC2)cc(OC)c1OC [B12] | 29.3 |
| O=C(c1ccccc1Cl)N1CCC(c2nc3ccccc3s2)CC1 [D6] | 18.5 |
| CCN1CCC(N(Cc2ccco2)C(=O)Nc2ccc(OC)cc2)CC1 [B79] | > 67.6 |
| CCCC(C)N1CCC(N(Cc2ccccc2)C(=O)Nc2cc(C)ccc2F)CC1 (stereo not drawn) [A181] | 19.8 |
| C=CS(=O)(=O)NCc1ccccc1CN(C(=O)Nc1cccc(C(F)(F)F)c1)C1CCN(C(C)CCC)CC1 (stereo not drawn) [drawing 850] | < 0.01 |
| Cc1cccc(CN(C(=O)Nc2cccc(C(F)(F)F)c2)C2CCN(Cc3ccccc3)CC2)n1 [B5] | 5.64 |
| C=CS(=O)(=O)NCCCN(C(=O)Nc1cccc(C(F)(F)F)c1)C1CCN(C(C)CCC)CC1 (stereo not drawn) [A220] | > 24.5 |
| CCCC(C)N1CCC(N(Cc2ccccc2)C(=O)Nc2ccn(-c3ccc(Cl)cc3)n2)CC1 (stereo not drawn) [A153] | 6.47 |
| C=CC(=O)NCCCN(C(=O)Nc1cccc(C(F)(F)F)c1)C1CCN(C(C)CCC)CC1 (stereo not drawn) [drawing 834] | 3.33 |
| Cc1ccc(C(=O)N2CCC(c3nc4ccccc4s3)CC2)cc1 [D3] | 14.7 |
| C#CCCCN1CCC(N(Cc2ccccc2NC(=O)/C=C/C)C(=O)Nc2cccc(C(F)(F)F)c2)CC1 [A195] | > 100 |
| CCC(C)CN1CCC(N(Cc2ccccc2)C(=O)Nc2cc(F)cc(C(F)(F)F)c2)CC1 (stereo not drawn) [A121] | 1 |
| C#CCCCN1CCC(N(Cc2ccccc2NC(=O)CCl)C(=O)Nc2cccc(C(F)(F)F)c2)CC1 [A253] | > 6.89 |
| CCCC(C)N1CCC(N(Cc2ccccc2)C(=O)Nc2ccc(O)c(Cl)c2)CC1 (stereo not drawn) [A300] | > 85.8 |
| CCCCN1CCC(N(Cc2ccccc2)C(=O)Nc2cccnc2)CC1 [A280] | > 70.1 |
| O=C(Nc1cccc(Cl)c1)NC1CCN(Cc2ccccc2)CC1 [B110] | > 73.1 |
| CCCCN1CCC(N(Cc2ccccc2)C(=O)Nc2ccc(OC)c(Cl)c2)CC1 [A287] | > 72.5 |
| CCCC(C)N1CCC(N(Cc2cccnc2)C(=O)Nc2cc(F)cc(C(F)(F)F)c2)CC1 (stereo not drawn) [A39] | 0.213 |

| SMILES | IC50 [µM] |
| --- | --- |
| CCCC(C)N1CCC(N(Cc2ccccc2)C(=O)Nc2ccc(F)c(Cl)c2)CC1 (stereo not drawn) [A53] | 0.287 |
| Cc1cccc(CN2CCC(NC(=O)Nc3cccc(C(F)(F)F)c3)CC2)c1 [A155, 1-(1-(3-Methylbenzyl)Piperidin-4-yl)-3-(3-(Trifluoromethyl)Phenyl)Urea] | 6.77 |
| CCCN1CCC(NC(=O)Nc2ccccc2Cl)CC1 [B51] | > 67.6 |
| CCCC(C)N1CCC(N(Cc2ccccc2)C(=O)Nc2cccc(Cl)c2F)CC1 (stereo not drawn) [A62] | 0.385 |
| CCCC(C)N1CCC(N(Cc2ccccc2)C(=O)Nc2cccc(O)c2)CC1 (stereo not drawn) [A177] | 14.5 |
| CCCCN(C(=O)Nc1ccc(Cl)c(Cl)c1)C1CCN(C(C)CCC)CC1 (stereo not drawn) [A20] | 0.116 |
| CCCC(C)N1CCC(N(Cc2ccccc2NC(=O)CCl)C(=O)Nc2cccc(C(F)(F)F)c2)CC1 (stereo not drawn) [A38] | 0.208 |
| CC(CCN1CCC(N(Cc2ccccc2)C(=O)Nc2cc(F)cc(C(F)(F)F)c2)CC1)c1ccccc1 (stereo not drawn) [A127] | 2.23 |
| Cn1cncc1CN1CCC(N(Cc2ccccc2)C(=O)Nc2cc(F)cc(C(F)(F)F)c2)CC1 [A221] | > 24.8 |
| CCCC(C)N1CCC(N(Cc2ccccc2)C(=O)Nc2ccc(OC)cc2OC)CC1 (stereo not drawn) [A196] | > 11.8 |
| CC(c1ccccc1)N1CCC(N(Cc2ccccc2)C(=O)Nc2cc(F)cc(C(F)(F)F)c2)CC1 (stereo not drawn) [A148] | 4.98 |
| O=C(c1ccccc1F)N1CCC(c2nc3ccccc3s2)CC1 [D13] | 45.3 |
| O=C(Nc1cc(F)cc(C(F)(F)F)c1)N(Cc1ccccc1)C1CCN(Cc2cc(F)c(F)c(F)c2)CC1 [A206] | > 20.9 |
| CCCC(C)N1CCC(N(Cc2ccccc2)C(=O)Nc2cc(Cl)ccc2F)CC1 (stereo not drawn) [A159] | 7.72 |
| CC(c1ccccn1)N1CCC(N(Cc2ccccc2)C(=O)Nc2cc(F)cc(C(F)(F)F)c2)CC1 (stereo not drawn) [A145] | 4.57 |
| CCCCN1CCC(CC(=O)OC)(NC(=O)Nc2cccc(C(F)(F)F)c2)CC1 [A254] | > 60.1 |
| CCCC(C)N1CCC(N(Cc2cccnc2)C(=O)Nc2ccc(Cl)c(Cl)c2)CC1 (stereo not drawn) [A16] | 0.0905 |
| O=C(Nc1cccc(C(F)(F)F)c1)NC1CCN(Cc2ccccc2F)CC1 [A238, 1-(1-(2-Fluorobenzyl)Piperidin-4-yl)-3-(3-(Trifluoromethyl)Phenyl)Urea] | > 49.4 |
| CCCC(C)N1CCC(N(Cc2ccccc2)C(=O)Nc2ccc(C(F)(F)F)cc2[NH2+][O-])CC1 (stereo not drawn) [A174] | 13.2 |
| O=C(c1ccc(I)cc1)N1CCCC(c2nc3ccccc3s2)C1 (stereo not drawn) [D31] | > 67.6 |
| Cc1cccc(CC(=O)NC2CCN(Cc3ccccc3)CC2)c1 [B21] | < 0.0041 |
| O=C(Nc1cc(F)cc(C(F)(F)F)c1)N(Cc1ccccc1)C1CCN(Cc2cccc(N3CCCC3)c2)CC1 [A202] | > 19.4 |
| CCCC(C)N1CCC(N(Cc2ccccc2)C(=O)Nc2ccccc2F)CC1 (stereo not drawn) [A295] | > 81.1 |

| SMILES | IC50 [µM] |
| --- | --- |
| CCCN1CCC(NC(=O)Nc2cccc(Cl)c2)CC1 [B117] | > 77.1 |
| CCCC(C)N1CCC(N(Cc2ccccc2)C(=O)Nc2ccc(I)cc2)CC1 (stereo not drawn) [A4] | 0.035 |
| Cc1cccc(NC(=O)NC2CCN(C(=O)c3ccccc3)CC2)c1 [B111] | > 73.2 |
| CCCC(C)N1CCC(N(Cc2ccccc2)C(=O)Nc2ccc(C)cc2Cl)CC1 (stereo not drawn) [A175] | 13.6 |
| CC(C1CCC1)N1CCC(N(Cc2ccccc2)C(=O)Nc2cc(F)cc(C(F)(F)F)c2)CC1 (stereo not drawn) [A118] | 0.143 |
| CCN1CCC(NC(=O)Nc2cccc(C(F)(F)F)c2)CC1 [B15] | 49.7 |
| CCCC(C)N1CCC(N(Cc2ccccc2)C(=O)Nc2ccc(Cl)cc2C#N)CC1 (stereo not drawn) [A141] | 4.22 |
| CCN1CCC(N(Cc2ccc(F)cc2)C(=O)Nc2ccccc2Cl)CC1 [B97] | > 67.6 |
| CCOc1ccc(NC(=O)N(Cc2ccco2)C2CCN(CC)CC2)cc1 [B80] | > 67.6 |
| COc1cccc(NC(=O)NC2CCN(Cc3ccccc3)CC2)c1 [B61] | > 67.6 |
| O=C(Nc1ccncc1[NH2+][O-])NC1CCN(Cc2ccccc2)CC1 [B120] | > 79.1 |
| C=CS(=O)(=O)NCc1ccccc1CN(C(=O)Nc1cccc(C(F)(F)F)c1)C1CCN(C(C)CCC)CC1 (stereo not drawn) [A2] | 0.0068 |
| Cn1ccnc1CN1CCC(N(Cc2ccccc2)C(=O)Nc2cc(F)cc(C(F)(F)F)c2)CC1 [A229] | > 28.6 |
| CCCC(C)N1CCC(N(Cc2ccccc2)C(=O)Nc2ccc(OC)c(Cl)c2)CC1 (stereo not drawn) [A138] | 4.05 |
| CCCC(C)N1CCC(N(Cc2ccccc2)C(=O)Nc2ccc(C)cc2)CC1 (stereo not drawn) [A50] | 0.268 |
| O=C(Nc1ccc(C(=O)N2CCCC2)cc1)Nc1cccc(C(F)(F)F)c1 [B112] | > 73.5 |
| C#CCCCN1CCC(N(Cc2ccccc2NC(=O)CC)C(=O)Nc2ccc(Cl)c(Cl)c2)CC1 [A200] | > 15 |
| COc1cccc(NC(=O)NC2CCN(C(C)C)CC2)c1 [B60] | > 67.6 |
| CCCC(C)N1CCC(N(Cc2ccccc2)C(=O)Nc2cccc(F)c2C)CC1 (stereo not drawn) [A151] | 5.66 |
| CN(C)c1ccc(CN2CCC(N(Cc3ccccc3)C(=O)Nc3cc(F)cc(C(F)(F)F)c3)CC2)c2ccccc12 [A204] | > 20.2 |
| CC1CN(Cc2ccccc2)CC(C)C1NC(=O)Nc1nccs1 (stereo not drawn) [B9] | 18.6 |
